Experimental data from ChEMBL document CHEMBL1833963, “Synthesis of new 3,20-bispolyaminosteroid squalamine analogues and evaluation of their antimicrobial activities” (2011).
In brackets after ≈: the same amount, converted by molar mass. Activity calls are given as the source filed them. No cut-off for these calls is given here.

Assays:
[1] = tested on: Staphylococcus aureus; test: Antibacterial activity against Staphylococcus aureus after 24 hrs by microbroth dilution method; assay type: functional
[2] = tested on: Inquilinus limosus; test: Antibacterial activity against colistin-resistant Inquilinus limosus after 24 hrs by microbroth dilution method; assay type: functional
[3] = tested on: Pseudomonas aeruginosa; test: Antibacterial activity against colistin-sensitive Pseudomonas aeruginosa after 24 hrs by microbroth dilution method; assay type: functional
[4] = tested on: Burkholderia cepacia; test: Antibacterial activity against Colistin resistant Burkholderia cepacia after 24 hrs by microbroth dilution method; assay type: functional
[5] = tested on: Staphylococcus aureus; test: Antibacterial activity against oxacillin-sensitive Staphylococcus aureus after 24 hrs by microbroth dilution method; assay type: functional
[6] = tested on: Escherichia coli; test: Antibacterial activity against Escherichia coli after 24 hrs by microbroth dilution method; assay type: functional
[7] = tested on: Pseudomonas aeruginosa; test: Antibacterial activity against Pseudomonas aeruginosa after 24 hrs by microbroth dilution method; assay type: functional
[8] = tested on: Staphylococcus aureus; test: Antibacterial activity against oxacillin-resistant Staphylococcus aureus after 24 hrs by microbroth dilution method; assay type: functional
[9] = tested on: Escherichia coli; test: Antibacterial activity against Escherichia coli ATCC 25922 after 24 hrs by microbroth dilution method in presence of Mg2+; assay type: functional
[10] = tested on: Escherichia coli; test: Ratio of MIC for Escherichia coli ATCC 25922 in presence of Mg2+ to MIC for Escherichia coli ATCC 25922 in absence of Mg2+; assay type: functional
[11] = tested on: Escherichia coli; test: Antibacterial activity against Escherichia coli ATCC 25922 after 24 hrs by microbroth dilution method in absence of Mg2+; assay type: functional
[12] = tested on: Escherichia coli; test: Antibacterial activity against Escherichia coli assessed as induction of ATP efflux at 4 times MIC after 5 mins by luminometry analysis; assay type: functional
[13] = tested on: Staphylococcus aureus; test: Antibacterial activity against Staphylococcus aureus assessed as induction of ATP efflux at 4 times MIC after 5 mins by luminometry; assay type: functional
[14] = tested on: Staphylococcus aureus; test: Antibacterial activity against Staphylococcus aureus ATCC 25923 after 24 hrs by microbroth dilution method in absence of Mg2+; assay type: functional
[15] = tested on: Escherichia coli; test: Antibacterial activity against Escherichia coli assessed as induction of bacterial membrane depolarization at MIC measured up to 21 mins by fluorescence assay; assay type: functional, organism-based
[16] = tested on: Staphylococcus aureus; test: Antibacterial activity against Staphylococcus aureus assessed as induction of bacterial membrane depolarization at MIC measured up to 21 mins by fluorescence assay; assay type: functional, organism-based
[17] = tested on: Staphylococcus aureus; test: Antibacterial activity against Staphylococcus aureus ATCC 25923 after 24 hrs by microbroth dilution method in presence of Mg2+; assay type: functional
[18] = tested on: Staphylococcus aureus; test: Antibacterial activity against Staphylococcus aureus assessed as induction of bacterial membrane depolarization at MIC after 3 mins by fluorescence assay; assay type: functional
[19] = tested on: Staphylococcus aureus; test: Bactericidal activity against Staphylococcus aureus DSM 799 assessed as log decrease in bacterial count at MIC after 1 hr by time-kill assay; assay type: functional
[20] = tested on: Pseudomonas aeruginosa; test: Bactericidal activity against Pseudomonas aeruginosa DSM 939 assessed as complete killing at MIC after 2 hrs by time-kill assay; assay type: functional, organism-based
[21] = tested on: Escherichia coli; test: Antibacterial activity against Escherichia coli assessed as induction of bacterial membrane depolarization at MIC measured up to 21 mins by fluorescence assay relative to squalamine; assay type: functional
[22] = tested on: Staphylococcus aureus; test: Antibacterial activity against Staphylococcus aureus assessed as induction of bacterial membrane depolarization at MIC measured up to 21 mins by fluorescence assay relative to squalamine; assay type: functional
[23] = tested on: Staphylococcus aureus; test: Bactericidal activity against Staphylococcus aureus DSM 799 assessed as log decrease in bacterial count at MIC after 2 hrs by time-kill assay; assay type: functional

Compound | MIC [1] [µg/mL] | MIC [2] [µg/mL] | MIC [3] [µg/mL] | MIC [4] [µg/mL] | MIC [5] [µg/mL] | MIC [6] [µg/mL] | MIC [7] [µg/mL] | MIC [8] [µg/mL] | also measured
C[C@@H](NCCCCCCCCCN)[C@H]1CC[C@H]2[C@@H]3CCC4=C[C@@H](NCCCCCCCCCN)CC[C@]4(C)[C@H]3CC[C@]12C | 5 (≈ 8.35 µM) | 20 (≈ 33.4 µM) | 40 (≈ 66.8 µM) | > 40 | 5 (≈ 8.35 µM) | 20 (≈ 33.4 µM) | 40 (≈ 66.8 µM) | 5 (≈ 8.35 µM) | 
C[C@@H](NCCCCCCCCCCN)[C@H]1CC[C@H]2[C@@H]3CCC4=C[C@@H](NCCCCCCCCCCN)CC[C@]4(C)[C@H]3CC[C@]12C | 10 (≈ 15.9 µM) | 20 (≈ 31.9 µM) | 40 (≈ 63.8 µM) | > 40 | 5 (≈ 7.97 µM) | 20 (≈ 31.9 µM) | 40 (≈ 63.8 µM) | 5 (≈ 7.97 µM) | 
C[C@@H](NCCCCCCN)[C@H]1CC[C@H]2[C@@H]3CCC4=C[C@@H](NCCCCCCN)CC[C@]4(C)[C@H]3CC[C@]12C | 2.5 (≈ 4.86 µM) | 20 (≈ 38.8 µM) | 20 (≈ 38.8 µM) | > 40 | 5 (≈ 9.71 µM) | 5 (≈ 9.71 µM) | 10 (≈ 19.4 µM) | 5 (≈ 9.71 µM) | 
CN[C@@H]1C=C2CC[C@H]3[C@@H]4CC[C@H]([C@@H](C)NC)[C@@]4(C)CC[C@@H]3[C@@]2(C)CC1 | 40 (≈ 116 µM) | > 40 | > 40 | > 40 | 20 (≈ 58 µM) | > 40 | > 40 | 20 (≈ 58 µM) | 
CC(C)[C@@H](CC[C@@H](C)[C@H]1CC[C@H]2[C@@H]3[C@H](O)C[C@H]4C[C@@H](NCCCNCCCCN)CC[C@]4(C)[C@H]3CC[C@]12C)OS(=O)(=O)O [SQUALAMINE] | 1.25 (≈ 1.99 µM) | 5 (≈ 7.96 µM) | 5 (≈ 7.96 µM) | > 40 | 0.3 (≈ 0.478 µM) | 5 (≈ 7.96 µM) | 2.5 (≈ 3.98 µM) | 1.25 (≈ 1.99 µM) | MIC ([9]; ATCC 25922, 24 h): 32 µg/mL; Ratio [10]: 4; MIC ([11]; ATCC 25922, 24 h): 2.5 µg/mL (≈ 3.98 µM); Activity [12]: <35%; Activity [13]: 100%; MIC ([14]; ATCC 25923, 24 h): 1.25 µg/mL (≈ 1.99 µM); Activity [15]: inactive; Activity [16]: Active; MIC ([17]; ATCC 25923, 24 h): 1.25 µg/mL; Activity [18]: 80%
C[C@@H](NCCCCN)[C@H]1CC[C@H]2[C@@H]3CCC4=C[C@@H](NCCCCN)CC[C@]4(C)[C@H]3CC[C@]12C | 5 (≈ 10.9 µM) | 40 (≈ 87.2 µM) | 20 (≈ 43.6 µM) | > 40 | 10 (≈ 21.8 µM) | 10 (≈ 21.8 µM) | 20 (≈ 43.6 µM) | 6 (≈ 13.1 µM) | 
COLISTIMETHATE SODIUM |  | > 100 | 5 | > 40 |  | 2.5 | 5 |  | MIC [9]: 16 µg/mL; Ratio [10]: 4; MIC [11]: 0.5 µg/mL; Activity [12]: 4%; Activity [13]: inactive; MIC [14]: > 128 µg/mL; MIC [17]: > 128 µg/mL
C[C@@H](NCCCCCCCCCCCCN)[C@H]1CC[C@H]2[C@@H]3CCC4=C[C@@H](NCCCCCCCCCCCCN)CC[C@]4(C)[C@H]3CC[C@]12C | 10 (≈ 14.6 µM) | 20 (≈ 29.3 µM) | 40 (≈ 58.5 µM) | > 40 | 5 (≈ 7.32 µM) | 20 (≈ 29.3 µM) | 40 (≈ 58.5 µM) | 10 (≈ 14.6 µM) | 
C[C@@H](NCCCCCCCCN)[C@H]1CC[C@H]2[C@@H]3CCC4=C[C@@H](NCCCCCCCCN)CC[C@]4(C)[C@H]3CC[C@]12C | 2.5 (≈ 4.38 µM) | 10 (≈ 17.5 µM) | 2.5 (≈ 4.38 µM) | > 40 | 2.5 (≈ 4.38 µM) | 5 (≈ 8.76 µM) | 2.5 (≈ 4.38 µM) | 5 (≈ 8.76 µM) | MIC ([9]; ATCC 25922, 24 h): 10 µg/mL; FC [19]: 5; Ratio [10]: 4; MIC ([11]; ATCC 25922, 24 h): 2.5 µg/mL (≈ 4.38 µM); Activity [12]: <35%; Activity [20]: Active; fold change (FC) [21]: 4; MIC ([14]; ATCC 25923, 24 h): 2.5 µg/mL (≈ 4.38 µM); MIC ([17]; ATCC 25923, 24 h): 5 µg/mL; fold change (FC) [22]: 4
C[C@@H](N)[C@H]1CC[C@H]2[C@@H]3CCC4=C[C@@H](N)CC[C@]4(C)[C@H]3CC[C@]12C | 40 (≈ 126 µM) | > 40 | > 40 | > 40 | > 40 | > 40 | > 40 | 40 (≈ 126 µM) | 
C[C@@H](NCCN)[C@H]1CC[C@H]2[C@@H]3CCC4=C[C@@H](NCCN)CC[C@]4(C)[C@H]3CC[C@]12C | 20 (≈ 49.7 µM) | > 40 | 20 (≈ 49.7 µM) | > 40 | 20 (≈ 49.7 µM) | 20 (≈ 49.7 µM) | 20 (≈ 49.7 µM) | 10 (≈ 24.8 µM) | 
C[C@@H](NCCCN)[C@H]1CC[C@H]2[C@@H]3CCC4=C[C@@H](NCCCN)CC[C@]4(C)[C@H]3CC[C@]12C | 10 (≈ 23.2 µM) | 20 (≈ 46.4 µM) | 20 (≈ 46.4 µM) | > 40 | 10 (≈ 23.2 µM) | 10 (≈ 23.2 µM) | 10 (≈ 23.2 µM) | 5 (≈ 11.6 µM) | 
C[C@@H](NCCCCCCCN)[C@H]1CC[C@H]2[C@@H]3CCC4=C[C@@H](NCCCCCCCN)CC[C@]4(C)[C@H]3CC[C@]12C | 2.5 (≈ 4.6 µM) | 20 (≈ 36.8 µM) | 10 (≈ 18.4 µM) | > 40 | 2.5 (≈ 4.6 µM) | 5 (≈ 9.21 µM) | 10 (≈ 18.4 µM) | 5 (≈ 9.21 µM) | 
C[C@@H](NCCCCCN)[C@H]1CC[C@H]2[C@@H]3CCC4=C[C@@H](NCCCCCN)CC[C@]4(C)[C@H]3CC[C@]12C | 5 (≈ 10.3 µM) | 40 (≈ 82.2 µM) | 20 (≈ 41.1 µM) | > 40 | 5 (≈ 10.3 µM) | 10 (≈ 20.5 µM) | 10 (≈ 20.5 µM) | 10 (≈ 20.5 µM) | 
NC[C@H]1O[C@H](O[C@H]2[C@H](O)[C@@H](O[C@H]3O[C@H](CO)[C@@H](O)[C@H](N)[C@H]3O)[C@H](N)C[C@@H]2N)[C@H](N)C[C@@H]1O [TOBRAMYCIN] | 1.25 (≈ 2.67 µM) | > 40 | 5 (≈ 10.7 µM) | > 40 | 1.25 (≈ 2.67 µM) | 2.5 (≈ 5.35 µM) | 5 (≈ 10.7 µM) |  | MIC ([9]; ATCC 25922, 24 h): 1 µg/mL; FC [23]: 5; MIC ([11]; ATCC 25922, 24 h): 2 µg/mL (≈ 4.28 µM); MIC ([14]; ATCC 25923, 24 h): 1 µg/mL (≈ 2.14 µM); MIC ([17]; ATCC 25923, 24 h): 2 µg/mL
